Broadly, the logP is the decadic logarithm of the partition coefficient of the neutral form, usually between octanol and water. The low end stands for lower lipophilicity, the high end for higher lipophilicity. Usually solubility stands for how much of the substance goes into solution per volume. A lower solubility goes with a poorly soluble substance.

The results in this text go back to the OPERA property sets (Mansouri et al. 2018).

In brackets after ≈: the same amount, converted by molar mass.

The conditions of this series: for solubility: 25 °C.

As for `COC(=O)CS(=O)(=O)c1ccccc1`, the logP amounted to 0.93. For the compound `COC(=O)C1(S(=O)(=O)c2ccccc2)CCCCC1`, the solubility was determined as 1410 µM (≈ 399 µg/mL). That is a millimolar value. On the same count and under the same terms, in the case of `CC(C)OC(=O)C1(S(=O)(=O)c2ccc(Cl)cc2)CCCC1` it was 22.4 µM (≈ 7.41 µg/mL). Same read-out and setting: in the case of `CCOC(=O)C1(S(=O)(=O)c2ccc(C)cc2)CCC1` it was 1100 µM (≈ 310 µg/mL); in that of `CC(C)OC(=O)C1(S(=O)(=O)c2ccc(Cl)cc2)CC1`, 288 µM (≈ 87.3 µg/mL). Still for that read-out and setting: in the case of `COC(=O)C1(S(=O)(=O)c2ccc(Br)cc2)CCC1` it was 282 µM (≈ 93.9 µg/mL); in that of `CC(C)(C)OC(=O)C1(S(=O)(=O)c2ccc(Cl)cc2)CC1`, 75.8 µM (≈ 24 µg/mL). Compound `COC(=O)C1(S(=O)(=O)c2ccc(C)cc2)CCCCC1` showed a logP of 2.54. `COC(=O)C1(S(=O)(=O)c2ccccc2)CCCC1` registered a solubility of 2820 µM (≈ 756 µg/mL). On to `CC(C)OC(=O)C1(S(=O)(=O)c2ccc([N+](=O)[O-])cc2)CCC1`, for which the solubility was 174 µM (≈ 56.9 µg/mL). As for `COC(=O)CS(=O)(=O)c1ccc(Cl)cc1`, the logP stood at 1.31. As to `COC(=O)C1(S(=O)(=O)c2ccc([N+](=O)[O-])cc2)CC1`, the solubility was determined as 417 µM (≈ 119 µg/mL). Same read-out and setting: in the case of `COC(=O)C1(S(=O)(=O)c2ccc(C)cc2)CC1` it was 1320 µM (≈ 335 µg/mL). In turn, `COC(=O)C1(S(=O)(=O)c2ccc(Br)cc2)CCCCC1` came in with a solubility of 33.2 µM (≈ 12 µg/mL). On to `COC(=O)CS(=O)(=O)c1ccc(Br)cc1`, for which the logP is 1.52. Take `CC(C)OC(=O)CS(=O)(=O)c1ccc(Cl)cc1`: the logP turned out to be 2.04.

In turn, `COC(=O)C1(S(=O)(=O)c2ccc(Cl)cc2)CC1` returned a solubility of 491 µM (≈ 135 µg/mL). Turning to `Cc1ccc(S(=O)(=O)C2(C(=O)OC(C)C)CCCC2)cc1`, the logP came to 2.88. Compound `COC(=O)C1(S(=O)(=O)c2ccccc2)CCC1` showed a solubility of 999 µM (≈ 254 µg/mL).

Compound `COC(=O)C1(S(=O)(=O)c2ccc(Br)cc2)CC1` had a solubility of 214 µM (≈ 68.2 µg/mL). This solubility is about 4.7-fold lower than that of the compound before.

In the case of `COC(=O)C1(S(=O)(=O)c2ccc(Br)cc2)CCCC1`, the solubility amounted to 97.6 µM (≈ 33.9 µg/mL). Compared with the last compound, the solubility is about 2.2-fold lower. Same read-out and setting: in the case of `CC(C)OC(=O)C1(S(=O)(=O)c2ccc([N+](=O)[O-])cc2)CC1` it was 54.9 µM (≈ 17.2 µg/mL).

Take `CC(C)OC(=O)C1(S(=O)(=O)c2ccc([N+](=O)[O-])cc2)CCCCCC1`: the solubility was 8.5 µM (≈ 3.14 µg/mL). On to `Cc1ccc(S(=O)(=O)C2(C(=O)OC(C)C)CC2)cc1`, for which the solubility came to 588 µM (≈ 166 µg/mL). Against the preceding compound, the solubility is about 69-fold higher. `COC(=O)C1(S(=O)(=O)c2ccc(Cl)cc2)CCC1` registered a solubility of 1000 µM (≈ 289 µg/mL). Compound `CCOC(=O)C1(S(=O)(=O)c2ccc(C)cc2)CC1` showed a solubility of 976 µM (≈ 262 µg/mL). Still for that read-out and setting: with `COC(=O)C1(S(=O)(=O)c2ccccc2)CC1` the figure was 5490 µM (≈ 1320 µg/mL).
